The target in one series is T1, PTP1B (Homo sapiens, UniProt P18031).
T1 construct: In this study, we used a well-studied truncation variant (i.e., PTP1B1-321); His-tag; made in house; host or cells: E. coli BL21 (DE3), pET21b
T1 sequence (P18031 1-321): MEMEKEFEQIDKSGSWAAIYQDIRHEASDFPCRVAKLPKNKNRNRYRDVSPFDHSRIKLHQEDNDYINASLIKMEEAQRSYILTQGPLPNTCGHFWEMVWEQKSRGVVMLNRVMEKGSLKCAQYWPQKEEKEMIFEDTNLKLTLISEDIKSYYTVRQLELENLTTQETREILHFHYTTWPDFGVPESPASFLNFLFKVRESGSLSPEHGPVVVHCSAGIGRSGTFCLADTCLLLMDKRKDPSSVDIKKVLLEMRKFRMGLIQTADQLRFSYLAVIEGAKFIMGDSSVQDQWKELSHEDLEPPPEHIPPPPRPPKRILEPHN
Kind of series: X-ray crystallography of PTP1B soaked with ligand. Format: binding, H. sapiens. The protocol: X-ray crystallography. We prepared crystals of PTP1B by using hanging drop vapor diffusion. In brief, we added 2 μL of PTP1B (~600 μM PTP1B, 50 mM HEPES, pH 7.3) to 6 μL of crystallization solution (100 mM HEPES, 200 mM magnesium acetate, and 14% polyethylene glycol 8000, pH 7.5) and incubated the resulting droplets over crystallization solution for one week at 4° C. (EasyXtal CrystalSupport, Qiagen). We soaked crystals with ligand by transferring them to droplets formed with 6 μL of crystallization solution and 1 μL of ligand solution (10 mM in DMSO), which we incubated for 2-5 days at 4° C. We prepared all […] for freezing by soaking them in cryoprotectant formed from a 70/30 (v/v) mixture of buffer (100 mM HEPES, 200 mM magnesium acetate, and 25% polyethylene glycol 8000, pH 7.5) and glycerol.
We collected X-ray diffraction data through the Collaborative Crystallography Program at Lawrence Berkeley National Lab (ALS ENABLE, beamline 8.2.1, 100 K, 1.00003 Å). We performed integration, scaling, and merging of X-ray diffraction data using the xia2 software package^79, and we carried out molecular replacement and structure refinement with the PHENIX graphical interface,^80 supplemented with manual model adjustment in COOT^81 and one round of PDB-REDO^82 (the latter, only for the PTP1B-AD complex).

The next series concerns the target T2, PTP1B (PTP1B1-321) (Homo sapiens, UniProt P18031).
T2 construct: His-tag; made in house; host or cells: E. coli BL21 (DE3), pET21b
T2 sequence (P18031 1-321): T1 sequence (P18031 1-321)
Put plainly: PTP1B-catalyzed hydrolysis of pNPP in the presence of terpenoids (enzyme kinetics, IC50 from best-fit models). The class given is biochemical, H. sapiens. The note with it: for IC50: 15 mM pNPP, 10% DMSO; for Ki: PTP1B1-321. Here is the method: Enzyme kinetics. To examine terpenoid-mediated inhibition, PTP1B-catalyzed hydrolysis of p-nitrophenyl phosphate (pNPP) was measured in the presence of various concentrations of terpenoids. Each reaction included PTP1B ([…]), pNPP (0.33, 0.67, 2, 5, 10, and 15 mM), inhibitors (110 μM, 50 μM, and 15 μM for amorphadiene; 100 μM, 50 μM, and 16.7 μM for taxadiene), and buffer (50 mM HEPES pH=7.5, 0.5 mM TCEP, 50 μg/ml BSA, 10% DMSO). The formation of p-nitrophenol was monitored by measuring absorbance at 405 nm every 10 seconds for 5 minutes on a Spectramax M2 plate reader.
Kinetic models were evaluated in three steps: (i) Initial-rate measurements collected in the absence and presence of inhibitors were fitted to Michaelis-Menten and inhibition models, respectively (here, the nlinfit and fminsearch functions from MATLAB were used). (ii) An F-test was used to compare the mixed model to the single-parameter model with the least sum squared error (here, the fcdf function from MATLAB was used to assign p-values), and the mixed model was accepted when p<0.05.
The MATLAB function “nlparci” was used to determine the confidence intervals of kinetic parameters, and those intervals were propagated to estimate corresponding confidence on IC50's.
Enzyme kinetics. To examine terpenoid-mediated inhibition, we measured PTP-catalyzed hydrolysis of p-nitrophenyl phosphate (pNPP) or 4-methylumbelliferyl phosphate (4-MUP, used when KM for pNPP was large) in the presence of various concentrations of terpenoids. Each reaction included PTP (0.05 μM PTP1B/TCPTP or 0.1 μM SHP1/SHP2 in 50 mM HEPES, 0.5 mM TCEP, 50 μg/ml BSA), pNPP (0.33, 0.67, 2, 5, 10, and 15 mM) or 4-MUP (0.13, 0.27, 0.8, 2.27, 2.93, 4.53, 7.07, and 8 mM), inhibitor (with concentrations listed in the figures), buffer (50 mM HEPES pH=7.3, 50 μg/ml BSA), and DMSO at 10% v/v. We monitored the formation of p-nitrophenol by measuring absorbance at 405 nm every 10 seconds for 5 minutes on a SpectraMax M2 plate reader and the formation of 4-methylumbelliferyl by measuring fluorescence at 450 nm (370 nm ex, 435 nm cutoff, medium gain).
We used a custom MATLAB script to process all raw kinetic data. This script removed all concentration values that fell outside of either (i) the range of our standard curve (absorbance/fluorescence vs. μM; FIG. 39) or (ii) the initial rate regime (>10% of the pNPP or 4-MUP concentration used in the assay). When this step reduced kinetic dataset to fewer than ten points, we re-measured those datasets to collect at least ten. We fit final datasets, in turn, with a linear regression model (using Matlab's backslash operator).
We evaluated kinetic models in three steps: (i) We fit initial-rate measurements collected in the absence and presence of inhibitors to Michaelis-Menten and inhibition models, respectively (here, we used the nlinfit and fminsearch functions from MATLAB; TABLE 12). (ii) We used an F-test to compare the mixed model to the single-parameter model with the least sum squared error (here, we used the fedf function from MATLAB to assign p-values), and we accepted the mixed model when p<0.05.

The mark [1] stands for this setting: Example 2, HEPES pH 7.3, ± 95% confidence interval.
Where [2] appears, read: competitive model of inhibition, read-out: Fit par. Ki, competitive model.
Setting [3] is: mixed model, competitive constant, read-out: Fit par. Ki,c, mixed model.
Where [4] appears, read: mixed model, uncompetitive constant, read-out: Fit par. Ki,u, mixed model.
Setting [5] is: noncompetitive model of inhibition, read-out: Fit par. Ki, noncompetitive model.
[6] abbreviates: uncompetitive model of inhibition, read-out: Fit par. Ki, uncompetitive model.

The text below walks through data of patent publication US12729458B2, “Discovery and evolution of biologically active metabolites” (The Regents of the University of Colorado, a Body Corporate, priority 2020, dated 2026).

Entries after “also recorded” stand apart in the source; their conditions may differ. Read-outs that look alike come from different tables or passages of the source.

On to `C=C(C)[C@@H]1CC[C@@H](C)[C@@H]2CCC(C)=C[C@@H]21` [amorphadiene], for which the “binding site on PTP1B (crystal structure)” value at PTP1B (crystal soaked with ligand, pdb entry 6W30) is recorded as “binds to the same allosteric site targeted by benzbromarone derivatives”. The IC50 at PTP1B (PTP1B1-321) (Example 1, HEPES pH 7.5) is about 53 µM; at PTP1B (PTP1B1-321) (setting [1]), 53 ± 8 µM. The Ki at PTP1B (PTP1B1-321) (setting [2]) worked out at 2.85 µM; on PTP1B (PTP1B1-321) (setting [3]) it was 86.2 µM; at PTP1B (PTP1B1-321) (setting [4]), 50.1 µM; at PTP1B (PTP1B1-321) (setting [5]), 52.6 µM; on PTP1B (PTP1B1-321) (setting [6]), 46.3 µM. In addition, the “simultaneous binding with TCS401 (Dixon plot)” value at PTP1B (PTP1B1-321) (Vo^−1 vs. [TCS401] at various concentrations of AD) is “cannot bind simultaneously”. Besides, on PTP1B (PTP1B1-321) (Vo^−1 vs. [orthovanadate] at various concentrations of AD), the “simultaneous binding with orthovanadate (Dixon plot)” value is “can bind simultaneously”. At PTP1B (PTP1B1-321) (pNPP initial rates), the “model (mode) of PTP1B inhibition from Michaelis-Menten fits” value is on record as “noncompetitive or uncompetitive inhibition; also recorded: noncompetitive inhibition”.

Turning to `CC(C)=CCC=C(C)C1CC=C(C)CC1` (stereo not drawn) [α-bisabolene], the “solubility (crystal soaking experiments)” value at PTP1B is recorded as “poor solubility”. Besides, the IC50 is about 20 µM on PTP1B (PTP1B1-321) (Example 1, HEPES pH 7.5) and 13 ± 2 µM on PTP1B (PTP1B1-321) (setting [1]). Also, the Ki amounted to 1.05 µM at PTP1B (PTP1B1-321) (setting [2]); 9.51 µM on PTP1B (PTP1B1-321) (setting [3]); 13.7 µM on PTP1B (PTP1B1-321) (setting [4]); 13.1 µM on PTP1B (PTP1B1-321) (setting [5]); 11.7 µM on PTP1B (PTP1B1-321) (setting [6]).

In general, IC50 refers to the concentration needed to halve the response being measured. As a reminder, the Ki is the dissociation constant of the complex between target and ligand, obtained from inhibition or displacement.
